Source: PMC11183015, “In vivo stable ^211At-labeled prostate-specific membrane antigen-targeted tracer using a neopentyl glycol structure” (EJNMMI Radiopharmacy and Chemistry, 2024)
Marks after values point to notes of the source that are not given here.

How the values were obtained:
Type in all cases: in vivo, mouse
[1] = Biodistribution of radioactivity in normal mice
Protocol: Six-week-old male ddY mice were injected via the tail vein with each radiolabeled PSMA derivative. Animals were sacrificed and the organs were dissected at 10 min, 1 h, 3 h, and 6 h after injection. Metabolic cages were used for housing normal mice. The tissues of interest were excised and weighed, and the radioactivity counts in each tissue were determined using an auto-well gamma counter. Each value was expressed as the mean percent injected dose/g tissue ± SD for a group of 3–5 animals, except those for the stomach, intestine, and thyroid.

LNCaP cell xenografts = assay: Biodistribution of radioactivity in tumor-bearing mice; settings: for Radioactivity in Intestine / Radioactivity in Neck / Radioactivity in Stomach: LNCaP tumor-bearing BALB/c-nu/nu mice; for Radioactivity in Blood / Radioactivity in Bone / Radioactivity in Heart / Radioactivity in Kidney / Radioactivity in Liver / Radioactivity in Lung / Radioactivity in Muscle / Radioactivity in Pancreas / Radioactivity in Spleen / Radioactivity in Tumor: male, BALB/c-nu/nu, mouse, in vivo
Protocol: Animal studies were conducted in accordance with the institutional guidelines approved by the Chiba University Animal Care Committee (Permit No. 4–183). Five-week-old male ddY mice and BALB/c-nu/nu mice were purchased from Japan SLC Inc. (Hamamatsu, Japan). LNCaP cells (5.0 × 10^6 cells) were suspended in 100 μL of PBS and Matrigel (BD Biosciences, Franklin Lakes, NJ, USA) in a 1:1 ratio. Tumor xenograft models were prepared via subcutaneous injection of this LNCaP cell suspension into BALB/c nude mice.
(§1) Biodistribution studies were conducted using male BALB/c-nu/nu mice bearing LNCaP cell xenografts at 1 and 3 h postinjection of [^211At]At-NpG-D-PSMA (100 µL, 37 kBq) and 1 and 6 h postinjection of ^125I-labeled PSMA derivative (100 µL, 11.1 kBq). In the blocking study, [^125I]I-NpG-D-PSMA was coinjected with 2-PMPA (50 mg/kg weight) into tumor-bearing mice via the tail vein. At 1 h postinjection, the mice were sacrificed. The tissues of interest were excised and weighed, and the radioactivity counts in each tissue were determined using an auto-well gamma counter. Each value was expressed as the mean percent injected dose/g tissue ± SD for a group of 3–5 animals, except those for the stomach, intestine, and thyroid.

[2] = Analysis of radiometabolites in urine by RP-HPLC; settings: normal ddY mice, urine up to 6 h after injection
Protocol: Urine samples were collected from 6-week-old ddY mice 6 h after injection of each ^125I-labeled PSMA derivative (100 µL, 370 kBq). After ethanol precipitation of proteins, the urine samples were filtered through a polycarbonate membrane (0.45 µm) and analyzed by RP-HPLC (System 2).

PSMA = PSMA (Homo sapiens, UniProt Q04609); assay: Blocking study with 2-PMPA in tumor-bearing mice; set-up: Tumor accumulation of [^125I]I-NpG-D-PSMA with or without 2-PMPA; from tissue; host or cells: LNCaP xenograft tumor in male BALB/c-nu/nu mice; settings: LNCaP tumor-bearing mice, 2-PMPA 50 mg/kg coinjected, 1 h
Protocol: as §1

[3] = normal ddY mice, i.v., 6 h, metabolic cages

PSMA, sequence (Q04609 whole entry): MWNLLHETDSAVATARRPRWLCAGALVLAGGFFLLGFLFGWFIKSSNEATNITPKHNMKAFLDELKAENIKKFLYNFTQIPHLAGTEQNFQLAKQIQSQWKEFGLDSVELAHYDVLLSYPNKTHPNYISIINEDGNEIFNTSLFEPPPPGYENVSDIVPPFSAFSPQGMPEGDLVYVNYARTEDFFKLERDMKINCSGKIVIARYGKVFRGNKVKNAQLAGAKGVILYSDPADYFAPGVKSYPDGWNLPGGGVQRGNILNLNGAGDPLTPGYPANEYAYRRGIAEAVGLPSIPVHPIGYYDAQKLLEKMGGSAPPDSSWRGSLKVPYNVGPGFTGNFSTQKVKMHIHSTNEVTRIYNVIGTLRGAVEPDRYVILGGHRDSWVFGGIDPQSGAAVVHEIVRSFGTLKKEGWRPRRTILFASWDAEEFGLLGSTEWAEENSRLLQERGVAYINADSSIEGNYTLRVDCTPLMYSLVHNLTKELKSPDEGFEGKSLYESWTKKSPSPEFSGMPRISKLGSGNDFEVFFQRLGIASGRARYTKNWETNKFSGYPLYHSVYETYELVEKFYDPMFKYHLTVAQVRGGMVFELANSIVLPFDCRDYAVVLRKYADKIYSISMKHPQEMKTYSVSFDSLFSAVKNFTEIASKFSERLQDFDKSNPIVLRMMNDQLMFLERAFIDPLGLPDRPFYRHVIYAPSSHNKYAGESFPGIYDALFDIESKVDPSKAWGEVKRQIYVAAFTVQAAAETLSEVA

O=C(O)CCC(NC(=O)NC(CCCCNC(=O)C(Cc1ccc2ccccc2c1)NC(=O)C(CCC(=O)O)NC(=O)C(CCC(=O)O)NC(=O)COCC(CO)(CO)C[125I])C(=O)O)C(=O)O [[^125I]I-NpG-D-PSMA]
Radioactivity in Blood ([1]; normal ddY mice, i.v., 10 min): 1.31 ± 0.10^c %ID/g | Radioactivity in Bone ([1]; normal ddY mice, i.v., 10 min): 0.71 ± 0.07^c %ID/g | Radioactivity in Heart ([1]; normal ddY mice, i.v., 10 min): 0.76 ± 0.08^c %ID/g | Radioactivity in Intestine ([1]; normal ddY mice, i.v., 10 min): 2.76 ± 0.02^c %ID | Radioactivity in Kidney ([1]; normal ddY mice, i.v., 10 min): 58.5 ± 2.27^c %ID/g | Radioactivity in Liver ([1]; normal ddY mice, i.v., 10 min): 0.83 ± 0.12^c %ID/g | Radioactivity in Lung ([1]; normal ddY mice, i.v., 10 min): 2.11 ± 0.16^c %ID/g | Radioactivity in Muscle ([1]; normal ddY mice, i.v., 10 min): 0.47 ± 0.07^c %ID/g | Radioactivity in Neck ([1]; normal ddY mice, i.v., 10 min): 0.48 ± 0.06^c %ID | Radioactivity in Pancreas ([1]; normal ddY mice, i.v., 10 min): 0.63 ± 0.15^c %ID/g | Radioactivity in Spleen ([1]; normal ddY mice, i.v., 10 min): 2.09 ± 0.83 %ID/g | Radioactivity in Stomach ([1]; normal ddY mice, i.v., 10 min): 0.28 ± 0.06 %ID | Radioactivity in Blood ([1]; normal ddY mice, i.v., 1 h): 0.18 ±0.02 %ID/g | Radioactivity in Bone ([1]; normal ddY mice, i.v., 1 h): 0.30 ± 0.25 %ID/g | Radioactivity in Heart ([1]; normal ddY mice, i.v., 1 h): 0.14 ± 0.7 %ID/g | Radioactivity in Intestine ([1]; normal ddY mice, i.v., 1 h): 2.97 ± 0.24^c %ID | Radioactivity in Kidney ([1]; normal ddY mice, i.v., 1 h): 74.6 ± 14.9^c %ID/g | Radioactivity in Liver ([1]; normal ddY mice, i.v., 1 h): 0.17 ± 0.07 %ID/g | Radioactivity in Lung ([1]; normal ddY mice, i.v., 1 h): 0.38 ± 0.06 %ID/g | Radioactivity in Muscle ([1]; normal ddY mice, i.v., 1 h): 0.11 ± 0.08 %ID/g | Radioactivity in Neck ([1]; normal ddY mice, i.v., 1 h): 0.11 ± 0.03^c %ID | Radioactivity in Spleen ([1]; normal ddY mice, i.v., 1 h): 0.20 ± 0.01 %ID/g | Radioactivity in Stomach ([1]; normal ddY mice, i.v., 1 h): 0.18 ± 0.00 %ID | Radioactivity in Blood ([1]; normal ddY mice, i.v., 3 h): 0.04 ± 0.02 %ID/g | Radioactivity in Bone ([1]; normal ddY mice, i.v., 3 h): 0.21 ± 0.28 %ID/g | Radioactivity in Heart ([1]; normal ddY mice, i.v., 3 h): 0.05 ± 0.04 %ID/g | Radioactivity in Intestine ([1]; normal ddY mice, i.v., 3 h): 3.30 ± 0.08^c %ID | Radioactivity in Kidney ([1]; normal ddY mice, i.v., 3 h): 22.9 ± 16.5 %ID/g | Radioactivity in Liver ([1]; normal ddY mice, i.v., 3 h): 0.05 ± 0.03 %ID/g | Radioactivity in Lung ([1]; normal ddY mice, i.v., 3 h): 0.12 ± 0.05 %ID/g | Radioactivity in Muscle ([1]; normal ddY mice, i.v., 3 h): 0.05 ± 0.03 %ID/g | Radioactivity in Neck ([1]; normal ddY mice, i.v., 3 h): 0.03 ± 0.02^c %ID | Radioactivity in Pancreas ([1]; normal ddY mice, i.v., 3 h): 0.20 ± 0.31 %ID/g | Radioactivity in Spleen ([1]; normal ddY mice, i.v., 3 h): 0.07 ± 0.05 %ID/g | Radioactivity in Stomach ([1]; normal ddY mice, i.v., 3 h): 0.27 ± 0.10^c %ID | Radioactivity in Blood ([1]; normal ddY mice, i.v., 6 h): 0.03 ± 0.01 %ID/g | Radioactivity in Bone ([1]; normal ddY mice, i.v., 6 h): 0.16 ± 0.17 %ID/g | Radioactivity in Heart ([1]; normal ddY mice, i.v., 6 h): 0.03 ± 0.01 %ID/g | Radioactivity in Intestine ([1]; normal ddY mice, i.v., 6 h): 6.19 ± 4.27 %ID | Radioactivity in Kidney ([1]; normal ddY mice, i.v., 6 h): 17.5 ± 5.43^c %ID/g | Radioactivity in Liver ([1]; normal ddY mice, i.v., 6 h): 0.05 ±0.03 %ID/g | Radioactivity in Lung ([1]; normal ddY mice, i.v., 6 h): 0.08 ± 0.00^c %ID/g | Radioactivity in Muscle ([1]; normal ddY mice, i.v., 6 h): 0.06 ± 0.07 %ID/g | Radioactivity in Neck ([1]; normal ddY mice, i.v., 6 h): 0.07 ± 0.09 %ID | Radioactivity in Pancreas ([1]; normal ddY mice, i.v., 6 h): 0.09 ± 0.12 %ID/g | Radioactivity in Spleen ([1]; normal ddY mice, i.v., 6 h): 0.05 ± 0.05 %ID/g | Radioactivity in Stomach ([1]; normal ddY mice, i.v., 6 h): 0.86 ± 0.65 %ID | Radioactivity in Feces [1, 3]: 0.66 ± 0.50 %ID | Radioactivity in Urine [1, 3]: 30.7 ± 2.85^c %ID | Accumulation in the stomach and thyroid (stability against deiodination) ([1]; normal mice): low accumulation | Radioactivity in Intestine (LNCaP cell xenografts; 1 h): 1.66 ± 0.29 %ID | Radioactivity in Neck (LNCaP cell xenografts; 1 h): 0.77 ± 0.17 %ID | Radioactivity in Stomach (LNCaP cell xenografts; 1 h): 0.19 ± 0.04 %ID | Radioactivity in Intestine (LNCaP cell xenografts; 6 h): 1.51 ± 0.61 %ID | Radioactivity in Neck (LNCaP cell xenografts; 6 h): 0.10 ± 0.01 %ID | Radioactivity in Stomach (LNCaP cell xenografts; 6 h): 0.17 ± 0.10 %ID | Radioactivity in Blood (LNCaP cell xenografts; 1 h): 0.64 ± 0.04 %ID/g | Radioactivity in Bone (LNCaP cell xenografts; 1 h): 0.25 ± 0.02 %ID/g | Radioactivity in Heart (LNCaP cell xenografts; 1 h): 0.89 ± 0.09 %ID/g | Radioactivity in Kidney (LNCaP cell xenografts; 1 h): 275 ± 17.6 %ID/g | Radioactivity in Liver (LNCaP cell xenografts; 1 h): 0.79 ± 0.06 %ID/g | Radioactivity in Lung (LNCaP cell xenografts; 1 h): 2.80 ± 0.09 %ID/g | Radioactivity in Muscle (LNCaP cell xenografts; 1 h): 0.27 ± 0.05 %ID/g | Radioactivity in Pancreas (LNCaP cell xenografts; 1 h): 0.84 ± 0.25 %ID/g | Radioactivity in Spleen (LNCaP cell xenografts; 1 h): 30.5 ± 7.49 %ID/g | Radioactivity in Tumor (LNCaP cell xenografts; 1 h): 20.4 ± 6.92 %ID/g | Radioactivity in Blood (LNCaP cell xenografts; 6 h): 0.06 ± 0.03 %ID/g | Radioactivity in Bone (LNCaP cell xenografts; 6 h): 0.07 ± 0.02 %ID/g | Radioactivity in Heart (LNCaP cell xenografts; 6 h): 0.10 ± 0.04 %ID/g | Radioactivity in Kidney (LNCaP cell xenografts; 6 h): 160 ± 89.9 %ID/g | Radioactivity in Liver (LNCaP cell xenografts; 6 h): 0.07 ± 0.03 %ID/g | Radioactivity in Lung (LNCaP cell xenografts; 6 h): 0.22 ± 0.09 %ID/g | Radioactivity in Muscle (LNCaP cell xenografts; 6 h): 0.07 ± 0.04 %ID/g | Radioactivity in Pancreas (LNCaP cell xenografts; 6 h): 0.12 ± 0.05 %ID/g | Radioactivity in Spleen (LNCaP cell xenografts; 6 h): 1.55 ± 0.75 %ID/g | Radioactivity in Tumor (LNCaP cell xenografts; 6 h): 20.8 ± 6.84 %ID/g | Form of radioactivity excreted in urine [2]: only intact [^125I]I-NpG-D-PSMA | Accumulation in the tumor and spleen with coinjected 2-PMPA (PSMA): inhibited by 2-PMPA
